What was measured:
[1] = biological target: T1, GR (ARR3tk-luc) in PC3 cells (Homo sapiens, UniProt P04150); assay: Nuclear receptor luciferase transcriptional assay, GR; assay type: cell-based; conditions: 1 or 5 µM, 1 nM Dexamethasone
T1 construct: expressed in transfected cells; host or cells: PC3 cells
Method: PC3 cells (androgen receptor (AR)-, glucocorticoid receptor (GR)[…], progesterone receptor (PR)-, ER-) were starved for 72 h then seeded into a 96-well plate at a density of 5,000 cells/well. 24 h later, cells were transfected with either ER, AR, GR, or PR and a luciferase plasmid (ERE-luc for ER and ARR3tk-luc for AR, GR, and PR). 24 h post-transfection, cells were simultaneously stimulated with 1 nM E2 for ER, 0.1 nM R1881 for AR, 1 nM Dexamethasone for GR, or 1 nM Levonorgestrel for PR, and treated with 1 or 5 µM of VPC-260724 24 h post-treatment, cells were lysed with 50 µl of passive lysis buffer (Promega #E1910). 20 µl of lysate was transferred to a white flat-bottom 96-well plate (Corning Life Sciences Cat#3912). Luminescence readings were obtained using the TECAN M200 Pro plate reader following the addition of 50 µl of luciferase reagent (Promega Luciferase Assay System E1500).

[2] = biological target: T2, full length ERɑ protein, estrogen binding site (EBS) (Homo sapiens, UniProt P03372); assay: E2-displacement assay (PolarScreen fluorescence polarization); conditions: fluorescence polarization, 1, 10 and 50 µM
T2 construct: full length ERɑ protein was incubated with Fluormone ES2 Green; purchased ThermoFisher A15882
T2 sequence (P03372 whole entry): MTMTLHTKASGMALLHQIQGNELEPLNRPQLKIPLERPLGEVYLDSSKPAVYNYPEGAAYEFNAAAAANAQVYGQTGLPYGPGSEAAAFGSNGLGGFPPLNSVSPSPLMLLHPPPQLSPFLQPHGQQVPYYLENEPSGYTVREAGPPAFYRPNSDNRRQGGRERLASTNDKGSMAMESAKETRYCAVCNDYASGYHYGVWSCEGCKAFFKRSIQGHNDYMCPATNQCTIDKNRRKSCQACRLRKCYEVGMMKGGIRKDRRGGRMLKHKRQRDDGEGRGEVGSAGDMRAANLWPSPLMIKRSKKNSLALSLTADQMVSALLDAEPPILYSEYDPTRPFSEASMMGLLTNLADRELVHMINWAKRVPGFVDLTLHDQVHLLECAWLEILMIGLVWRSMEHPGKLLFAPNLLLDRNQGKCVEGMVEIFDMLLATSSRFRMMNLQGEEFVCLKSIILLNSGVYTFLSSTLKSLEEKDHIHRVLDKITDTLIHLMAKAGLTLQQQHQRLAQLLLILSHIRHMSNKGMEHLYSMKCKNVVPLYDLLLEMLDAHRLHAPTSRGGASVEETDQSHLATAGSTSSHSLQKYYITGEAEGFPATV
Method: The E2 displacement assay was performed using the PolarScreen Estrogen Receptor Alpha Competitor Assay, Green (ThermoFisher A15882) according to the manufacturer’s protocol. In brief, full length ERɑ protein was incubated with Fluormone ES2 Green (Fluormone Tracer) in the ES2 screening buffer in a black bottom 384-well plate (Corning 3573) in the presence of either 1, 10, or 50 µM of test compounds. The final concentrations in the assay were 2% DMSO (consistent with the MST assay), 4.5 nM fluormone, and 40 nM ERɑ protein. 20 µl of the mixture were added to each well, with triplicates performed for each condition. The plate was incubated in the dark at room temperature for 4 h before fluorescence polarization was measured using a Synergy Neo2 plate reader (BioTek).

T1 sequence (P04150 whole entry): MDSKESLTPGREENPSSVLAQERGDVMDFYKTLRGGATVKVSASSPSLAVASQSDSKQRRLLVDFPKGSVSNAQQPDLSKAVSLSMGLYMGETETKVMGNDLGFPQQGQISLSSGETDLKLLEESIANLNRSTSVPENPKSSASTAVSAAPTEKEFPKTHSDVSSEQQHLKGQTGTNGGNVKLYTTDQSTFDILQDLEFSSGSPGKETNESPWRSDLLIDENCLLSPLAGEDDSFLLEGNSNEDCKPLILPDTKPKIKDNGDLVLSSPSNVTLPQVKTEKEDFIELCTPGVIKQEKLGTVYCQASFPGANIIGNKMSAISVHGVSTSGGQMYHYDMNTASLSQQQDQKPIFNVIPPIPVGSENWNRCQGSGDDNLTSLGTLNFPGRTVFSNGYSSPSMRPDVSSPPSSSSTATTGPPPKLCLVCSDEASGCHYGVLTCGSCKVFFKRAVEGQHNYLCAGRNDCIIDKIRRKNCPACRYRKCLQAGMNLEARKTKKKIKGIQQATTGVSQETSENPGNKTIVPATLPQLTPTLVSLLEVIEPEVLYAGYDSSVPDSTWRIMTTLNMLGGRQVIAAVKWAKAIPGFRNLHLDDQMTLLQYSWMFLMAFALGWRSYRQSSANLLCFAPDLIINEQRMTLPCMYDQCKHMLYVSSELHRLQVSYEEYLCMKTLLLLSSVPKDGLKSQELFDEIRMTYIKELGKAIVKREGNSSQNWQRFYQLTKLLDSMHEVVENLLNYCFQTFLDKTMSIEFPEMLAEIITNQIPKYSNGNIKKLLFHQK

Cc1cccn2c(CNCc3cccc(N(C)C)n3)cnc12 [VPC-260724]
Transcriptional activity of GR [1]: did not significantly impact
Displacement of fluormone (fluorescent E2) from EBS [2]: did not displace the fluormone at any of the tested concentrations
